Structures are written as SMILES. pIC50: −log10 of the molar value.

In the assay the target is recombinant CD73 (Homo sapiens (Human), UniProt P21589). Kind of assay: Assay 2: Inhibition of the CD73 enzyme in vitro (0.05 nM CD73, 1 hour 37° C., Malachite Green). It counts as biochemical. The conditions noted are these: 0.05 nM CD73, 50 μM AMP, 1 hour at 37° C. On the procedure: For measurements of soluble CD73 enzyme activity, recombinant CD73 was obtained from R&D Systems, Cat. No. 5795-EN-010. […] Reactions were allowed to proceed for 1 hour at 37° C. before the addition of 100 μL Malachite Green (Cell Signaling Technology, Cat. No. 12776). After 5 minutes at room temperature, absorbance at 630 nm was determined on a microplate spectrophotometer. The concentration of inorganic phosphate was determined using a phosphate standard curve.
recombinant CD73, sequence (P21589 27-547): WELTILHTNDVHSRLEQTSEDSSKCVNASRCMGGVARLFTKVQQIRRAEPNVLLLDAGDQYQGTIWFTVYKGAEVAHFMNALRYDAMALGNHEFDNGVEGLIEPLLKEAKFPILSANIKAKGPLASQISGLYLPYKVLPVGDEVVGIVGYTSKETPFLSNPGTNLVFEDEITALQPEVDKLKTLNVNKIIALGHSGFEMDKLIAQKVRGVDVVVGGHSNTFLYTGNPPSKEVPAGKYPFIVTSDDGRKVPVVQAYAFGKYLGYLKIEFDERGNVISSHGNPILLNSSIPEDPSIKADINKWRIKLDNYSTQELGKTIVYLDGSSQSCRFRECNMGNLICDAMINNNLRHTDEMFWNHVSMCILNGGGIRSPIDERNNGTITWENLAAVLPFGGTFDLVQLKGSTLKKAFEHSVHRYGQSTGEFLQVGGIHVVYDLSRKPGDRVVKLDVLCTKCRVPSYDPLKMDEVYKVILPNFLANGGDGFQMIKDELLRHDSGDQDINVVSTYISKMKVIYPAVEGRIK
The pIC50 is −log10 of the IC50, conventionally taken in molar units. In the case of `C#C[C@@]1(O)[C@@H](COC(Cc2cc(C)on2)(C(=O)O)C(=O)O)O[C@@H](n2cnc3c(NC(C)C)nc(Cl)nc32)[C@@H]1O` [Example 110, 2-(((2R,3S,4R,5R)-5-(2-chloro-6-(isopropylamino)-9H-purin-9-yl)-3-ethynyl-3,4-dihydroxytetrahydrofuran-2-yl)methoxy)-2-((5-methylisoxazol-3-yl)methyl)malonic acid], the pIC50 is 8.52.

For the compound `C#C[C@@]1(O)[C@@H](CO[C@@](Cc2ccccc2)(C(=O)O)c2cscn2)O[C@@H](n2cnc3c(NCC4CC4)nc(Cl)nc32)[C@@H]1O` (single isomer, unassigned) [Example 173], the negative-log IC50 (pIC50) was 6.95. `C#C[C@@]1(O)[C@@H](COC(Cc2ccc(-c3cccn(CC)c3=O)cc2)(C(=O)O)C(=O)O)O[C@@H](n2cnc3c(N)nc(Cl)nc32)[C@@H]1O` [Example 20, 2-(((2R,3S,4R,5R)-5-(6-amino-2-chloro-9H-purin-9-yl)-3-ethynyl-3,4-dihydroxytetrahydrofuran-2-yl)methoxy)-2-(4-(1-ethyl-2-oxo-1,2-dihydropyridin-3-yl)benzyl)malonic acid]: the pIC50 was 9.70. Take `C#C[C@@]1(O)[C@@H](COC(Cc2ccccc2)(C(=O)O)C(=O)O)O[C@@H](n2cnc3c(N4CCC4)nc(Cl)nc32)[C@@H]1O` [Example 88, 2-(((2R,3S,4R,5R)-5-(6-(azetidin-1-yl)-2-chloro-9H-purin-9-yl)-3-ethynyl-3,4-dihydroxytetrahydrofuran-2-yl)methoxy)-2-benzylmalonic acid]: the pIC50 is 8.92.

As to `C#C[C@@]1(O)[C@@H](COC(Cc2ccccc2)(C(=O)O)C(=O)O)O[C@@H](n2cnc3c(N4CCC[C@H]4CO)nc(Cl)nc32)[C@@H]1O` [Example 104, 2-benzyl-2-(((2R,3S,4R,5R)-5-(2-chloro-6-((S)-2-(hydroxymethyl)-pyrrolidin-1-yl)-9H-purin-9-yl)-3-ethynyl-3,4-dihydroxytetrahydrofuran-2-yl)methoxy)malonic acid], the pIC50 was 8.70. Next, `C#C[C@@]1(O)[C@@H](COC(Cc2ccccc2)(C(=O)O)C(=O)O)O[C@@H](n2cnc3c(NC4CCOC4)nc(Cl)nc32)[C@@H]1O` (stereo partly drawn) [Example 64, 2-benzyl-2-(((2R,3S,4R,5R)-5-(2-chloro-6-((tetrahydrofuran-3-yl)-amino)-9H-purin-9-yl)-3-ethynyl-3,4-dihydroxytetrahydrofuran-2-yl)methoxy)-malonic acid]: 8.52; `C#C[C@@]1(O)[C@@H](COC(Cc2ccccc2)(C(=O)O)C(=O)OCC)O[C@@H](n2cnc3c(N)nc(C(N)=O)nc32)[C@@H]1O` (stereo partly drawn) [Example 121, 2-(((2R,3S,4R,5R)-5-(6-amino-2-carbamoyl-9H-purin-9-yl)-3-ethynyl-3,4-dihydroxytetrahydrofuran-2-yl)methoxy)-2-benzyl-3-ethoxy-3-oxopropanoic acid]: 5.77. To `C#C[C@@]1(O)[C@@H](COC(C(=O)O)S(=O)(=O)c2ccccc2)O[C@@H](n2cnc3c(N4CCOCC4)nc(Cl)nc32)[C@@H]1O` (stereo partly drawn) [Example 119, 2-(((2R,3S,4R,5R)-5-(2-chloro-6-morpholino-9H-purin-9-yl)-3-ethynyl-3,4-dihydroxytetrahydrofuran-2-yl)methoxy)-2-(phenylsulfonyl)acetic acid] belongs 5.34; to `C#C[C@@H]1[C@@H](O)[C@H](n2cnc3c(N)nc(Cl)nc32)O[C@@H]1COC(Cc1ccccc1)(C(=O)O)C(=O)O` [Compound 2, 2-(((2S,3R,4R,5R)-5-(6-amino-2-chloro-9H-purin-9-yl)-3-ethynyl-4-hydroxytetrahydrofuran-2-yl)methoxy)-2-benzylmalonic acid], 6.83. As for `C#C[C@@]1(O)[C@@H](COC(Cc2ccoc2)(C(=O)O)C(=O)O)O[C@@H](n2cnc3c(N)nc(Cl)nc32)[C@@H]1O` [Compound 8, 2-(((2R,3S,4R,5R)-5-(6-amino-2-chloro-9H-purin-9-yl)-3-ethynyl-3,4-dihydroxytetrahydrofuran-2-yl)methoxy)-2-(furan-3-ylmethyl)malonic acid], the pIC50 was 8.70.

Turning to `C#C[C@@]1(O)[C@@H](COC(Cc2ccccc2)(C(=O)O)C(=O)O)O[C@@H](n2cnc3c(N(C)C)nc(Cl)nc32)[C@@H]1O` [Example 31, 2-benzyl-2-(((2R,3S,4R,5R)-5-(2-chloro-6-(dimethylamino)-9H-purin-9-yl)-3-ethynyl-3,4-dihydroxytetrahydrofuran-2-yl)methoxy)malonic acid], the pIC50 was 8.70.

For `C#C[C@@]1(O)[C@@H](COC(Cc2ccccc2)(C(=O)O)C(=O)O)O[C@@H](n2cnc3c(NC[C@@H](C)O)nc(Cl)nc32)[C@@H]1O` [Example 35, 2-benzyl-2-(((2R,3S,4R,5R)-5-(2-chloro-6-(((R)-2-hydroxypropyl)amino)-9H-purin-9-yl)-3-ethynyl-3,4-dihydroxytetrahydrofuran-2-yl)methoxy)malonic acid], the pIC50 is 8.40. As for `C#C[C@@]1(O)[C@@H](COC(Cc2nc3ccccc3s2)(C(=O)O)C(=O)O)O[C@@H](n2cnc3c(NCc4ccc(F)cc4)nc(Cl)nc32)[C@@H]1O` [Example 112, 2-(benzo[d]thiazol-2-ylmethyl)-2-(((2R,3S,4R,5R)-5-(2-chloro-6-((4-fluorobenzyl)amino)-9H-purin-9-yl)-3-ethynyl-3,4-dihydroxytetrahydrofuran-2-yl)methoxy)malonic acid], the pIC50 is 5.87. Next, `C#C[C@@]1(O)[C@@H](COC(Cc2ccccc2)(C(=O)O)C(=O)O)O[C@@H](n2cnc3c(NCc4ccccc4F)nc(Cl)nc32)[C@@H]1O` [Example 67, 2-benzyl-2-(((2R,3S,4R,5R)-5-(2-chloro-6-((2-fluorobenzyl)amino)-9H-purin-9-yl)-3-ethynyl-3,4-dihydroxytetrahydrofuran-2-yl)methoxy)malonic acid]: 9.10; `C#C[C@@]1(O)[C@@H](COC(Cc2ccccc2)(C(=O)O)C(=O)O)O[C@@H](n2cnc3c(NC4(CO)CC4)nc(Cl)nc32)[C@@H]1O` [Example 43, 2-benzyl-2-(((2R,3S,4R,5R)-5-(2-chloro-6-((1-(hydroxymethyl)-cyclopropyl)amino)-9H-purin-9-yl)-3-ethynyl-3,4-dihydroxytetrahydrofuran-2-yl)methoxy)malonic acid]: 8.70. Next, `C#C[C@@]1(O)[C@@H](COC(Cc2ccccc2)(C(=O)O)C(=O)O)O[C@@H](n2cnc3c(N[C@H]4CCc5ccccc54)nc(Cl)nc32)[C@@H]1O` [Example 72, 2-benzyl-2-(((2R,3S,4R,5R)-5-(2-chloro-6-(((S)-2,3-dihydro-1H-inden-1-yl)amino)-9H-purin-9-yl)-3-ethynyl-3,4-dihydroxytetrahydrofuran-2-yl)methoxy)-malonic acid]: 8.52; `C#C[C@@]1(O)[C@@H](COC(Cc2ccc(N3CCCN(C)C3=O)cc2)(C(=O)O)C(=O)O)O[C@@H](n2cnc3c(N)nc(Cl)nc32)[C@@H]1O` [Example 149, 2-(((2R,3S,4R,5R)-5-(6-amino-2-chloro-9H-purin-9-yl)-3-ethynyl-3,4-dihydroxytetrahydrofuran-2-yl)methoxy)-2-(4-(3-methyl-2-oxotetrahydropyrimidin-1 (2H)-yl)benzyl)malonic acid]: 9.96. Next, `C#C[C@@]1(O)[C@@H](COC(Cc2ccc(-c3cccn(CCC)c3=O)cc2)(C(=O)O)C(=O)O)O[C@@H](n2cnc3c(NC)nc(Cl)nc32)[C@@H]1O` [Example 160, 2-(((2R,3S,4R,5R)-5-(2-chloro-6-(methylamino)-9H-purin-9-yl)-3-ethynyl-3,4-dihydroxytetrahydrofuran-2-yl)methoxy)-2-(4-(2-oxo-1-propy-1,2-dihydropyridin-3-yl)benzyl)malonic acid]: 9.51; `C#C[C@@]1(O)[C@@H](COC(Cc2ccccc2)(C(=O)O)C(=O)O)O[C@@H](n2cnc3c(N(C)C4CC(O)C4)nc(Cl)nc32)[C@@H]1O` (stereo partly drawn) [Example 48, 2-benzyl-2-(((2R,3S,4R,5R)-5-(2-chloro-6-((3-hydroxycyclobutyl)-(methyl)amino)-9H-purin-9-yl)-3-ethynyl-3,4-dihydroxytetrahydrofuran-2-yl)methoxy)malonic acid]: 9.30; `C#C[C@@]1(O)[C@@H](COC(CC=C)(C(=O)O)C(=O)O)O[C@@H](n2cnc3c(N)nc(Cl)nc32)[C@@H]1O` [Example 15, 2-allyl-2-(((2R,3S,4R,5R)-5-(6-amino-2-chloro-9H-purin-9-yl)-3-ethynyl-3,4-dihydroxytetrahydrofuran-2-yl)methoxy)malonic acid]: 7.70.

On to `C#C[C@@]1(O)[C@@H](COC(Cc2ccc(N3CCCN(C)C3=O)cc2)(C(=O)O)C(=O)O)O[C@@H](n2cnc3c(NC(C)C)nc(Cl)nc32)[C@@H]1O` [Example 151, 2-(((2R,3S,4R,5R)-5-(2-chloro-6-(isopropylamino)-9H-purin-9-yl)-3-ethynyl-3,4-dihydroxytetrahydrofuran-2-yl)methoxy)-2-(4-(3-methyl-2-oxotetrahydropyrimidin-1(2H)-yl)benzyl)malonic acid], for which the negative-log IC50 (pIC50) is 9.60.

As for `C#C[C@@]1(O)[C@@H](CO[C@@](Cc2ccc(N3CCCNC3=O)cc2)(C(=O)O)C(=O)OCC)O[C@@H](n2cnc3c(N)nc(Cl)nc32)[C@@H]1O` (single isomer, unassigned) [Example 165], the negative-log IC50 (pIC50) was 7.35.

With `C#C[C@@]1(O)[C@@H](COC(Cc2ccccc2)(C(=O)O)C(=O)O)O[C@@H](n2cnc3c(NC[C@H](C)O)nc(Cl)nc32)[C@@H]1O` [Example 36, 2-benzyl-2-(((2R,3S,4R,5R)-5-(2-chloro-6-(((S)-2-hydroxypropyl)amino)-9H-purin-9-yl)-3-ethynyl-3,4-dihydroxytetrahydrofuran-2-yl)methoxy)malonic acid], the pIC50 was 8.40.

The record behind these values is patent publication US11078228B2, “Ectonucleotidase inhibitors and methods of use thereof” (Calithera Biosciences, Inc., priority 2018, dated 2021).
